The assay concerns SK-MEL-2 multi-cell spheroids, viability. The experiment in a line: Anticancer human tumor SK-MEL-2 cell line growth inhibition [TAK].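 As to all read-outs here: spheroids exposed to drugs for seven days before readout.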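 As to viability, T/C: percent of DMSO vehicle control luminescence so 100% = untreated viability.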 As to conditions: for viability, T/C: stronger effect = lower value. The source says:
Combinatorial screen of targeted agents with TAK-243 and ipatasertib in multi-cell type tumor spheroids
A high-throughput screen of multi-cell type tumor spheroids was designed to identify active combinations of targeted small molecules and TAK-243 or ipatasertib. Complex spheroids include a stromal component modeled by human endothelial cells (HUVEC) and fibroblasts modeled by human mesenchymal stem cells (MSCs). The concentration ranges selected for each drug and investigational agent were based upon clinically achievable concentrations if the clinical Cmax of the agent was known.
Compounds. The drugs and investigational agents: TAK-243 (785004), ipatasertib (767898), everolimus (733504), selumetinib (741078), bortezomib (756655), trametinib (758246), ixazomib (758254), vemurafenib (761431), dabrafenib (764134), sapanisertib (764658), alpelisib (765974), and copanlisib (816437), were obtained from the National Cancer Institute (NCI) Developmental Therapeutics Program Chemical Repository. The FDA-approved anticancer drug set is available from the NCI Developmental Therapeutics Program. […] The stock solutions were prepared in dimethyl sulfoxide (DMSO, Sigma-Aldrich, St. Louis, MO, cat. D2650) at 800-fold the tested concentration and stored at -70 degrees C prior to their use. All drugs and investigational agents were tested over a range starting from a high concentration at or near the clinical Cmax and decreasing in half-log increments. If the clinical Cmax for an agent had not been determined, the highest concentration tested was 10 microM.
NCI60 Cell Culture. NCI60 cell lines were obtained from the NCI Developmental Therapeutics Program Tumor Repository. For each lot of cells, the Repository performed Applied Biosystems AmpFLSTR Identifiler testing with PCR amplification to confirm consistency with the published Identifier STR profile for each cell line. Cells were kept in continuous culture for no more than 20 passages. The optimal seeding densities for each of the cell lines at each time point assessed were determined prior to performing the concentration response studies. Briefly, the NCI60 human tumor lines were grown as monolayers in RPMI 1640 medium supplemented with 10% FBS and 2 mmol/L L-glutamine.
An additional 2 lines were from the NCI60 cell line panel including melanomas, MALME-3M and SK-MEL-2. Pooled donor human umbilical vein endothelial cells (HUVEC, Lonza, cat. CC-2519) and human mesenchymal stem cells (hMSC, Lonza, cat. PT-2501) were purchased from Lonza (Walkersville, MD).
PDMR cell lines were grown in complete medium (DC medium): Dulbecco's modified Eagle's medium (DMEM)/F12 supplemented with 5% fetal bovine serum (FBS), 2 mM L-glutamine, 100 U/mL penicillin and 100 µg/ml streptomycin, 0.4 µg/ml hydrocortisone, 10 ng/ml epidermal growth factor (EGF) recombinant human protein, 24 µg/mL adenine, and 0.1 mg/mL primocin. During culture from frozen stock vials, PDMR cells were cultured in the same medium containing 10 µM Y-27632 (see Table 3). The PDCs were cultured in complete DMEM/F12 media without 10 microM Y-27632 dihydrochloride for at least two passages prior to the screen. The pooled donor HUVEC and hMSC were cultured in endothelial cell growth medium 2 (PromoCell, Heidelberg, Germany, cat. C-22011) and mesenchymal stem cell growth medium 2 (PromoCell, cat. C-28009), respectively. For all experiments, HUVEC and hMSC were used at passages </=5.
For the pre-screen, cell seeding densities were determined from a titration spanning the range from 5,000 to 313 cells per well. The mct-spheroids including 60% malignant cells, 25% HUVEC and 15% MSC dispensed as a mixture into U-bottom Ultra-Low Attachment 384-well plates (Corning, NY)
High-throughput Drug Combination Screening.
Prior to their inoculation into 384-well plates, malignant cells, HUVEC, and hMSC were removed from T flasks using TrypLE express (Thermo Fisher Scientific, cat. 12605036) and harvested by centrifugation for 5 min at 233 x g. […]

Where “and” joins values, the source holds several entries; their conditions need not be identical. Equal values may be shown once.

A word on the viability, T/C: it is the ratio of treated to control. By IC50 is commonly meant the concentration at which inhibition is half-maximal.

Turning to `CC(=O)Nc1cccc(-n2c(=O)n(C3CC3)c(=O)c3c(Nc4ccc(I)cc4F)n(C)c(=O)c(C)c32)c1`, the viability, T/C (compound 94.9 pM) is 91% and 88.6%; the viability, T/C (compound 0.0003 µM) was 40.3% and 35.3%; the viability, T/C (compound 0.000949 µM) is 17.9% and 15.7%; the viability, T/C (compound 0.003 µM) is 6.38% and 5.17%; the viability, T/C (compound 0.00949 µM) was 3.87% and 4.14%; the viability, T/C (compound 0.03 µM) is 2.42% and 3.1%. In addition, the IC50 (curve of compound) was 0.242 nM and 0.22 nM.
`CC(C)(C)c1nc(-c2cccc(NS(=O)(=O)c3c(F)cccc3F)c2F)c(-c2ccnc(N)n2)s1`: the viability, T/C runs as follows: (compound 0.0316 µM) 137% and 126%; (compound 0.1 µM) 126% and 122%; (compound 0.316 µM) 82.3% and 76.3%; (compound 1 µM) 28.8% and 32%; (compound 3.16 µM) 13.3% and 16.8%; (compound 10 µM) 18.9% and 22.2%. In addition, the IC50 (curve of compound) was 631 nM and 615 nM.
With `CC(C)CC(NC(=O)C(Cc1ccccc1)NC(=O)c1cnccn1)B(O)O` (stereo unspecified), the viability, T/C (compound 31.6 pM) is 117% and 109%; the viability, T/C (compound 0.0001 µM) was 96.5% and 94.3%; the viability, T/C (compound 0.000316 µM) is 101% and 98.5%; the viability, T/C (compound 0.001 µM) is 113% and 109%; the viability, T/C (compound 0.00316 µM) was 114% and 110%; the viability, T/C (compound 0.01 µM) was 88.5% and 99.6%. Also, the IC50 (curve of compound) is over 10 nM.
As to `CC(C)CC(NC(=O)CNC(=O)c1cc(Cl)ccc1Cl)B1OC(=O)CC(CC(=O)O)(C(=O)O)O1` (stereo unspecified), the viability, T/C reads like this: (compound 0.000316 µM) 110% and 95.1%; (compound 0.001 µM) 94.6% and 97.2%; (compound 0.00316 µM) 98% and 93.9%; (compound 0.01 µM) 79.3% and 75.7%; (compound 0.0316 µM) 24.6% and 26%; (compound 0.1 µM) 6.45% and 4.25%. Also, the IC50 (curve of compound) was 18.5 nM and 18.1 nM.
For `CC(C)NCC(C(=O)N1CCN(c2ncnc3c2C(C)CC3O)CC1)c1ccc(Cl)cc1` (stereo unspecified), under “compound alone, run of 02/20/2020”, the IC50 was over 30000 nM.
On to `CC(C)n1nc(-c2ccc3oc(N)nc3c2)c2c(N)ncnc21`, for which the viability, T/C by setting is: (compound 0.000316 µM) 109% and 105%; (compound 0.001 µM) 99.8% and 100%; (compound 0.00316 µM) 88.6% and 89.8%; (compound 0.01 µM) 86.9% and 76%; (compound 0.0316 µM) 52.2% and 55.5%; (compound 0.1 µM) 29.2% and 31.2%. Also, the IC50 (curve of compound) is 41 nM and 41.1 nM.
`CCCS(=O)(=O)Nc1ccc(F)c(C(=O)c2c[nH]c3ncc(-c4ccc(Cl)cc4)cc23)c1F`: the viability, T/C by setting is: (compound 0.316 µM) 105% and 130%; (compound 1 µM) 102% and 129%; (compound 3.16 µM) 103% and 113%; (compound 10 µM) 83% and 41.8%; (compound 31.6 µM) 117% and 58.2%; (compound 100 µM) 106% and 71.2%. For the same compound, the IC50 (curve of compound) was over 100000 nM.
As to `COC1CC2CCC(C)C(O)(O2)C(=O)C(=O)N2CCCCC2C(=O)OC(C(C)CC2CCC(OCCO)C(OC)C2)CC(=O)C(C)C=C(C)C(O)C(OC)C(=O)C(C)CC(C)C=CC=CC=C1C` (stereo unspecified), the viability, T/C is, setting by setting: (compound 0.000316 µM) 85% and 118%; (compound 0.001 µM) 66.2% and 89%; (compound 0.00316 µM) 57.4% and 74.4%; (compound 0.01 µM) 55.8% and 73.2%; (compound 0.0316 µM) 52.8% and 58.8%; (compound 0.1 µM) 47.7% and 69.9%. Also, the IC50 (curve of compound) was over 100 nM.
Take `COc1c(OCCCN2CCOCC2)ccc2c3n(c(=NC(=O)c4cnc(N)nc4)nc12)CCN3`: the viability, T/C is, setting by setting: (compound 0.00316 µM) 93.1% and 92.3%; (compound 0.01 µM) 71.8% and 74%; (compound 0.0316 µM) 60.8% and 56.7%; (compound 0.1 µM) 44.8% and 46.6%; (compound 0.316 µM) 31.1% and 30.9%; (compound 1 µM) 20.5% and 23.6%. For the same compound, the IC50 (curve of compound) was 63.9 nM and 61.4 nM.
In the case of `Cc1nc(NC(=O)N2CCCC2C(N)=O)sc1-c1ccnc(C(C)(C)C(F)(F)F)c1` (stereo unspecified), the viability, T/C (compound 0.0316 µM) was 100% and 105%; the viability, T/C (compound 0.1 µM) is 91.2% and 91.5%; the viability, T/C (compound 0.316 µM) was 84.4% and 85.5%; the viability, T/C (compound 1 µM) is 80.7% and 83.9%; the viability, T/C (compound 3.16 µM) was 68.8% and 66.5%; the viability, T/C (compound 10 µM) was 55.6% and 54.2%. Further, under “curve of compound”, the IC50 was over 10000 nM.
For `Cn1cnc2c(F)c(Nc3ccc(Br)cc3Cl)c(C(=O)NOCCO)cc21`, the viability, T/C (compound 0.00949 µM) is 46.8% and 40.8%; the viability, T/C (compound 0.03 µM) is 34.6% and 17.4%; the viability, T/C (compound 0.0949 µM) was 19.7% and 9.79%; the viability, T/C (compound 0.3 µM) was 21.9% and 7.35%; the viability, T/C (compound 0.949 µM) is 14.6% and 5.25%; the viability, T/C (compound 3 µM) was 14.1% and 2.56%. Moreover, under “curve of compound”, the IC50 was under 9.49 nM.

Source of the values: PubChem BioAssay AID2060344 (Molecular Pharmacology Branch, DTP, NCI, 2025).
